Laboratory results published in patent US9980967B1, “Method for overcoming drug resistance of EGFR mutation and cancerous stemness of human non-small cell lung carcinoma” (NATIONAL CHIAO TUNG UNIVERSITY, priority 2017, dated 2018).

Experiments:
H1975 xenograft tumors = assay: Xenografted human NSCLC (H1975) tumors in nude mice; format: in vivo; conditions: 30 mg/kg once per four days
Description: The results were obtained from twelve mice and the bar represents the mean±S.E.M.**p<0.01, indicating significant difference between control and SP101 treatment group mice. ###p<0.001 indicates significant differences between SP101 and Gefitinib-treated mice.
The tumor weight was means±*p<0.05 indicating significant differences between control and SP101 treatment group mice. #p<0.05 indicates significant differences between SP101 and Gefitinib-treated mice.
NSCLC tumors in nude mice were established. Seven-week-old nude mice were subcutaneously injected with 3×10^6 H1975 cells. Please refer to FIGS. 7 and 8. After 7 to 10 days inoculation, the nude mice were treated with vehicle or 30 mg/kg SP101 or 30 mg/kg Gefitinib once per four days and tumor sizes in the nude mice were measured every four days. The nude mice were sacrificed after treatment for 16 days; the tumors were harvested to measure tumor volume/weight and further analyze tumor tissues. […] Please refer to FIG. 9.

[1] = system: Survivin and cleaved-form Caspase 3 in H1975 cells; assay: Western blot and immunofluorescence of Survivin and cleaved Caspase 3 in H1975 cells; format: cell-based, human
Description: FIG. 5 is a result of immunofluorescence staining and confocal microscopy. The green color indicated location of Survivin protein excited with 488 nm. The β-tubulin protein was stained with Cy3-labeled mouse anti-β-tubulin antibody (red color). The fluorescence intensity of β-tubulin was excited with 543 nm and the emission was collected in range of 560-580 nm. Blue color indicated location of nuclei following stained with Hoechst 33258 and was excited with 405 nm and the emission was collected in range of 415-450 nm. Overlapping localization is shown in the merged images.
FIG. 6 is a result of immunofluorescence staining and confocal microscopy. The green color indicated location of cleaved Caspase 3 protein excited with 488 nm. The β-tubulin protein was stained with Cy3-labeled mouse anti-β-tubulin antibody (red color). The fluorescence intensity of β-tubulin was excited with 543 nm and the emission was collected in range of 560-580 nm. Blue color indicated location of nuclei following stained with Hoechst 33258 and was excited with 405 nm and the emission was collected in range of 415-450 nm. Overlapping localization is shown in the merged images.
Reduction of Survivin protein expression has shown to inhibit tumor growth in NSCLC. Please refer to FIG. 4. H1975 cells with EGFR (T790M) mutation were treated with or without SP101 (20˜30 μM for 24 hours) and analyzed by Western blot. […] Actin was an internal control protein.
Further, immunofluorescence staining and confocal microscopy were utilized to determine the expression and cell morphology of Survivin and cleaved-form Caspase 3 after treatment with SP101 in H1975 cells with EGFR (T790M) mutation. The cells were treated with or without 30 μM of SP101 for 24 hours. At the end of treatment, the cells were fixed with 4% paraformaldehyde at 37 °C for 1 hour. The fixed cells were incubated with rabbit anti-Survivin antibody or rabbit anti-cleaved caspase-3 antibody at 4 °C overnight. Then the cells were stained with goat anti-rabbit IgG Dylight 488 at 37 °C for 1 hour. Please refer to FIGS. 5 and 6. The green fluorescence (Dylight 488) indicated location of Survivin and cleaved-form Caspase 3. The blue fluorescence (Hoechst 33258) and red fluorescence (Cy3) represented nucleus and β-tubulin respectively. Treatment with 30 μM SP101 for 24 hours, Survivin protein expression was reduced; in addition, the apoptotic bodies and cleaved-form Caspase 3 protein were induced.

PLC26 cells = assay: MTT cell viability assay in PLC26 cells; format: cell-based, human; conditions: 0~40 μM for 24 hours, compared with Gefitinib
Procedure: After treatment, the cells were re-cultured in fresh medium for 2 days. The cell viability was analyzed by MTT assays. The results were obtained from three independent experiments and the bar represents the mean±S.E.M. ***p<0.001 indicates significant difference between gefitinib and SP101 treated samples.
(§1) A549 (ATCC number: CCL-185) was a non-small cell lung carcinoma cell line which expressed wild type EGFR and with K-Ras mutation (G12S). H1975 (ATCC number: CRL-5908) was a non-small cell lung carcinoma cell line which expressed EGFR L858R/T790M mutation. Oct4 and Nanog overexpression in A549-ON presented the properties of cancer stem-like cells, as well as epithelial-mesenchymal transdifferentiation. PLC26 was lung cancer cells that separated from pleural effusion of a clinical lung cancer patient (IRB number: 103-011-E). A549-ON cells were cultured in DMEM medium. A549 and H1975 cells were maintained in RPMI-1640 medium. PLC26 cells were maintained in LHC-9 medium. […]
We have further investigated the effect of SP101 in PLC26 lung cancer cells separated from the pleural effusion of a clinical lung cancer patient. To compare the cell viability of SP101 and Gefitinib in PLC26 cells, the cells were treated with 0˜40 μM SP101 or Gefitinib for 24 hours, and analyzed by MTT assays. […] The apoptosis levels of SP101 in PLC26 cells were analyzed by Annexin V and PI staining. […]

A549 cells = assay: MTT cell viability assay in A549 cells; format: cell-based, human; conditions: 0~40 μM for 24 hours, compared with Gefitinib
Procedure: After treatment, the cells were re-cultured in fresh medium for 2 days. The cell viability was analyzed by MTT assays. The results were obtained from three independent experiments and the bar represents the mean±S.E.M. ***p<0.001 indicates significant difference between Gefitinib and SP101 treated samples.
as §1, with “medium.” for “medium. PLC26 cells were maintained in LHC-9 medium.”
Please refer to FIG. 12. […] To compare the cell viability of SP101 and Gefitinib in K-Ras mutation-drug resistant A549 and A549-ON cell lines, the cells were treated with 0˜40 μM SP101 or Gefitinib for 24 hours, and analyzed by MTT assays. […] To determine the effect of SP101 and Gefitinib on the cell viability in cancer stem-like A549-ON cells, the cells were treated with 10˜40 μM SP101 or Gefitinib for 24 hours, and analyzed by MTT assays.

[2] = 30 μM for 24 hours, immunofluorescence and confocal microscopy
[3] = 20~30 μM for 24 hours, Western blot

## CCCCCCCCCCCCOC(=O)CCC(=O)N1CCN(CCCOc2cc3c(Nc4ccc(F)c(Cl)c4)ncnc3cc2OC)CC1 [SP101, dodecyl 4-(4-(3-(4-(3-chloro-4-fluorophenylamino)-7-methoxyquinazolin-6-yloxy)propyl)piperazin-1-yl)-4-oxobutanoate]
H1975 xenograft tumors; during the treatment period
  body weight of the nude mice: did not alter
H1975 xenograft tumors; H1975 xenograft in nude mice, 16 days
  tumor growth: significantly inhibited
H1975 xenograft tumors; H1975 xenograft in nude mice, after sacrifice at 16 days, compared with Gefitinib
  tumor weight: more potent on the inhibition of tumor weight than Gefitinib
[1]; [2]
  Survivin protein expression: reduced
  apoptotic bodies and cleaved-form Caspase 3 protein: induced
[1]; [3]
  Survivin protein level: reduced
  apoptotic protein level of cleaved-form Caspase 3: induced
PLC26 cells
  reduction of cell viability: more effective on the reduction of cell viability than Gefitinib
A549 cells
  reduction of cell viability: more potent on the reduction of cell viability than Gefitinib
